Test results as given in patent publication US9802996B2, “Glycosylated polypeptide and drug composition containing said polypeptide” (Glytech, Inc., priority 2011, dated 2017).

Key:
SSTR1-SSTR5 = experiment: Competitive binding assay, statements over all receptors; set-up: species or system Human; conditions: Example 69-1, range over SSTR1-SSTR5
[1] = system: rat gastrointestinal obstruction model; experiment: Gastrointestinal obstruction model: blood parameters (amylase, LDH, CPK); assay type: in vivo, rats; conditions: for Amylase / CPK / LDH: rat gastrointestinal obstruction model, blood collected 1 hour after subcutaneous administration of 40 μM solution at 1 mL/kg, 18 hours after surgery; for LDH activity compared to the vehicle / amylase activity compared to the vehicle: rats, blood 1 hour after administration
Protocol: This experimental line was carried out as a test line to evaluate the promotion of intestinal fluid absorption or the secretory suppressing action, using the change in the intestinal fluid weight in the jejunum after bowel obstruction as an indicator. Moreover, blood parameters of deviation enzymes amylase (pancreas), lactate dehydrogenase (LDH, liver), and creatine phosphokinase (CPK, skeletal muscle, cardiac muscle etc.) were measured as indicators of tissue disorders.
The present test was consigned to Mitsubishi Chemical Medience Corporation and carried out. […] Anesthesia was introduced with inhalation of 2% isoflurane and laughing gas:oxygen=7:3, and this was maintained throughout the surgery. A median incision was made in the abdomen, and the jejunum at about 10 cm from the musculus suspensorius duodeni was ligated with a surgical suture. Then, the incision site was promptly sutured, and the rats were fasted until compound administration. In the sham treatment group, ligation of the jejunum was not performed, but the treatment of suturing the incision site after a median incision was made in the abdomen was performed.
(§1) Eighteen hours after the gastrointestinal obstruction surgery, this was subcutaneously administered into the dorsal cervix at a dosage of 1 mL/kg with a glass syringe and a 25 G injection needle (all from Terumo Corporation). As the vehicle group, saline without glycosylated polypeptide was similarly administered.
One hour after compound administration, a median incision was made in the abdomen under inhalation anesthesia, and 1.5 mL of blood was collected from the abdominal vena cava.
The measuring methods employed were BG5B, UV-rate, and JSCC methods, respectively.

[2] = system: growth hormone (GH) production; experiment: GH production suppression test with rats; assay type: in vivo; conditions: for GH production suppression activity: administration of 10 or 100 nmol/kg;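 for all read-outs here: plasma GH measured by EIA in blood drawn 5 min after intravenous GRF stimulus, given 1 h after compound dosing, compared against saline-treated vehicle rats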
Protocol: This experimental line was carried out as a test line that can evaluate the pharmacological action of the glycosylated form on SSTR and its residence in blood after administration, with blood GH production amount as an indicator.
Moreover, GRF (GH releasing hormone, Growth hormone releasing factor) was used as the GH release enhancer. […] As heparin employed as the anticoagulant when collecting blood, Japanese Pharmacopeia heparin sodium injectable solution (Lot. B084, from Mochida Pharmaceutical Co., Ltd.) was used directly as stock solution.
As the control group, saline without glycosylated polypeptide was similarly administered (vehicle group). […] One hour after administration of the glycosylated form, i.e. after 50 minutes or more had passed under anesthesia, GRF was administered as the GH release enhancer to the tail vain at a dosage of 1 mL/kg with a glass syringe and an injection needle. Five minutes after administration of GRF, blood was collected from the rat cervical vein with a glass syringe containing heparin and an injection needle. 0.4 mL of the collected blood was left on ice for 20 minutes or more, then centrifuged (1,870×g, 4° C., 10 minutes), and 100 μL of the supernatant was taken as the plasma sample. As blank plasma, plasma obtained by similarly treating the blood collected from untreated rat cervical vein was employed. Plasma samples were frozen in storage until employed for measurement.
Measurement of GH concentration in the plasma sample obtained in the above 89-2 was performed with rat Growth Hormone EIA kit from SPI-Bio (SPI-Bio, A05104). The plasma sample was diluted with the assay buffer supplied in the EIA kit to 20, 100, and 500-folds as measurement samples. […] By multiplying the results obtained and the dilution ratio, the GH concentration was calculated.

[3] = system: rat gastrointestinal obstruction model; experiment: Drug effect test in gastrointestinal obstruction model: intestinal fluid weight; assay type: in vivo, rats; conditions: for Intestinal fluid weight: jejunum wet weight-dry weight, 40 μM solution 1 mL/kg subcutaneous 18 h after surgery, one hour after administration; for intestinal fluid weight compared to the vehicle: rats, subcutaneous 40 nmol/kg, 1 hour after administration
Description: Anesthesia was introduced with inhalation of 2% isoflurane and laughing gas:oxygen=7:3, and this was maintained throughout the surgery. A median incision was made in the abdomen, and the jejunum at about 10 cm from the musculus suspensorius duodeni was ligated with a surgical suture. Then, the incision site was promptly sutured, and the rats were fasted until compound administration. In the sham treatment group, ligation of the jejunum was not performed, but the treatment of suturing the incision site after a median incision was made in the abdomen was performed.
as §1
One hour after compound administration, a median incision was made in the abdomen under inhalation anesthesia, and 1.5 mL of blood was collected from the abdominal vena cava. Then, the ligated jejunum on the musculus suspensorius duodeni side was resected. The fluid and blood on the jejunum surface were removed with a paper towel, nerves, blood vessels, and fat attached to the jejunum was removed, this was cut into 6 cm lengths, and wet weight was measured. This was then dried at 36 degrees for 24 hours, and dry weight was measured. The intestinal fluid weight (mg) was calculated by wet weight-dry weight.

[4] = Pharmacokinetics test with rats (intravenous and subcutaneous administration)
Protocol: 0.2 mL of the collected blood was promptly mixed with 0.2 mL of the aprotinin-containing EDTA-PBS solution prepared in the above 70-1, and left on ice for 30 minutes or more. […] As blank plasma, plasma obtained by similarly treating the blood collected from untreated rat cervical vein was employed. Plasma samples were frozen in storage until employed for measurement.
The standard solution for creating a standard curve was prepared as follows. First, the blank plasma obtained in the above 70-2 was diluted with the assay buffer supplied in the EIA kit similarly to the plasma sample, and this was used as the assay buffer for standard solution preparation (for example, when diluting the plasma sample to 100-fold, 1/100 amount of blank plasma was added to the assay buffer supplied in the EIA kit, and this was used as the assay buffer for standard solution preparation).
Moreover, the predicted initial concentration (C0) was determined by the extrapolation method for intravenous administration, t1/2 and MRT were calculated, and the maximum plasma concentration (Cmax) was determined from the actual value for subcutaneous administration.
Moreover, the parameters obtained were employed to calculate bioavailability from the following mathematical formula. BA (%)=(AUC(sc)/Dose(sc))/(AUC(iv)/Dose(iv))
AUC(sc): AUC for subcutaneous administration (min·nM)
Dose(sc): Administration dose for subcutaneous administration (nmol/kg)
AUC(iv): AUC for intravenous administration (min·nM)
Dose(iv): Administration dose for intravenous administration (nmol/kg)

[5] = Table 8, plasma GH, dose 1 nmol/kg
[6] = Table 8, plasma GH, dose 3 nmol/kg
[7] = Table 8, plasma GH, dose 30 nmol/kg
[8] = intravenous administration, Table 5A
[9] = subcutaneous administration, Table 5A
[10] = Table 8, plasma GH, dose 10 nmol/kg
[11] = Table 7, plasma GH, dose 10 nmol/kg subcutaneous, GRF 1 hour after administration, blood 5 min after GRF
[12] = Table 8, plasma GH, dose 100 nmol/kg
[13] = Table 7, plasma GH, dose 1 nmol/kg subcutaneous, GRF 1 hour after administration, blood 5 min after GRF

Question: What does the source list for C(disialo)-R-K-SRIF14 [Example 18]?
Answer: affinity towards SSTR1-SSTR5, folds higher than S1C(disialo)-SRIF28 (SSTR1-SSTR5): 0.7-2.4 folds; Amylase [1]: 985 ± 238 IU/L; CPK [1]: 415 ± 137 IU/L; LDH [1]: 228 ± 155 IU/L; LDH activity compared to the vehicle [1]: low value compared to the vehicle; amylase activity compared to the vehicle [1]: low value compared to the vehicle; GH [2, 5]: 912 ng/mL; GH [2, 6]: 291 ng/mL; GH [2, 7]: 12 ng/mL; GH production suppression effect ([2]; rats, subcutaneous, 10 nmol/kg): 95-99%; Intestinal fluid weight [3]: 584 ± 95 mg; intestinal fluid weight compared to the vehicle [3]: increase in the intestinal fluid weight compared to the vehicle

Question: For “S1C(disialo(aminoethylamide))-SRIF28 [Example 59]”, which “GH production suppression effect” value ([2]; rats, subcutaneous, 10 nmol/kg) is on record?
Answer: 70-99%

Question: Which results are given for S1-5C(disialo)-SRIF28 [Example 34]?
Answer: AUC [4, 8]: 6016 ± 873 nM·min; C0 [4, 8]: 752 ± 81.4 nM; MRT [4, 8]: 0.817 ± 0.101 h; t1/2 [4, 8]: 1.66 ± 0.233 h; AUC for subcutaneous administration, folds of S1C(disialo)-SRIF28 ([4]; subcutaneous): 1.8-3.1 folds; AUC [4, 9]: 5524 ± 633 nM·min; Cmax [4, 9]: 13.5 ± 2.85 nM; MRT [4, 9]: 6.48 ± 0.833 h; t1/2 [4, 9]: 4.52 ± 0.645 h; bioavailability (BA) ([4]; subcutaneous vs intravenous AUC): 92%; BA ([4]; subcutaneous vs intravenous administration, Table 5A): 92%; GH [2, 10]: 842 ng/mL; GH production suppression activity ([2]; rats): showed GH production suppression activity

Question: For K14C(disialo)-SRIF28 [Example 6], which “GH production suppression activity” value ([2]; rats) is on record?
Answer: showed GH production suppression activity

Question: With “S1C(disialo)-D-Trp22-SRIF28 [Example 15]” as the compound, how does the “GH production suppression effect” value ([2]; rats, subcutaneous, 10 nmol/kg) read?
Answer: 95-99%

Question: For S1C(asialo)-SRIF28 [Example 27], which “GH production suppression effect” value ([2]; rats, subcutaneous, 10 nmol/kg) is on record?
Answer: 70-99%

Question: For “S1C(disialo)•N5C(disialo)•A9C(disialo)-SRIF28 [Example 25]”, which “GH” value [2, 11] is on record?
Answer: 833 ng/mL

Question: And the “GH” value ([2]; Table 7, plasma GH, dose 100 nmol/kg subcutaneous, GRF 1 hour after administration, blood 5 min after GRF)?
Answer: 151 ng/mL

Question: What about the “GH” value [2, 12] of the same compound?
Answer: 151 ng/mL

Question: And the “GH production suppression activity” value ([2]; rats)?
Answer: showed GH production suppression activity

Question: Which results are given for C[C@@H](O)[C@@H]1NC(=O)[C@H](CCCCN)NC(=O)[C@@H](Cc2c[nH]c3ccccc23)NC(=O)[C@H](Cc2ccccc2)NC(=O)[C@@H](NC(=O)[C@H](N)Cc2ccccc2)CSSC[C@@H](C(=O)N[C@H](CO)[C@@H](C)O)NC1=O [Octreotide, reference compound]?
Answer: LDH activity compared to the vehicle [1]: low value compared to the vehicle; amylase activity compared to the vehicle [1]: equivalent to the vehicle; intestinal fluid weight compared to the vehicle [3]: confirmed to have this effect

Question: For N5C(disialo)-SRIF28 [Example 2], which “GH production suppression effect” value ([2]; rats, subcutaneous, 10 nmol/kg) is on record?
Answer: 95-99%

Question: Which Amylase [1] does the source give for S1C(disialo)-SRIF28 [Example 1] here?
Answer: 1164 ± 224 IU/L

Question: And the CPK [1]?
Answer: 455 ± 202 IU/L

Question: And the LDH [1]?
Answer: 338 ± 97 IU/L

Question: What about the “amylase activity compared to the vehicle” value [1] of the same compound?
Answer: low value compared to the vehicle

Question: What about the “GH” value [2, 13] of the same compound?
Answer: 490 ng/mL

Question: And the “GH” value [2, 11]?
Answer: 17.1 ng/mL

Question: What about the “GH” value [2, 5] of the same compound?
Answer: 787 ng/mL

Question: What about the “GH” value [2, 6] of the same compound?
Answer: 182 ng/mL

Question: What about the “GH” value [2, 10] of the same compound?
Answer: 15 ng/mL

Question: And the “GH” value [2, 7]?
Answer: 8 ng/mL

Question: And the “GH” value [2, 12]?
Answer: 7 ng/mL

Question: And the “dose from which GH production was suppressed” value ([2]; rats, subcutaneous)?
Answer: ≥ 1 nmol/kg

Question: What about the “GH production suppression effect” value ([2]; rats, subcutaneous, 3-10 nmol/kg) of the same compound?
Answer: 82-99%

Question: What about the “Intestinal fluid weight” value [3] of the same compound?
Answer: 630 ± 83 mg

Question: And the “intestinal fluid weight compared to the vehicle” value [3]?
Answer: increase in the intestinal fluid weight compared to the vehicle

Question: For “S1C(disialo)•N5C(disialo)-SRIF28 [Example 21]”, which “GH” value [2, 13] is on record?
Answer: 776 ng/mL

Question: What about the “GH” value [2, 11] of the same compound?
Answer: 181 ng/mL

Question: And the “GH” value [2, 5]?
Answer: 776 ng/mL

Question: And the “GH” value [2, 10]?
Answer: 181 ng/mL

Question: And the “GH production suppression activity” value ([2]; rats)?
Answer: showed GH production suppression activity

Question: For R13C(disialo)-SRIF28 [Example 5], which “GH production suppression activity” value ([2]; rats) is on record?
Answer: showed GH production suppression activity

Question: Which “GH production suppression effect” value ([2]; rats, subcutaneous, 10 nmol/kg) does the source give for S1C(disialo(Bn))-SRIF28 [Example 61] here?
Answer: 95-99%

Question: With A9C(disialo)-SRIF28 [Example 3] as the compound, how does the “GH production suppression effect” value ([2]; rats, subcutaneous, 10 nmol/kg) read?
Answer: 95-99%

Question: Which “GH production suppression effect” value ([2]; rats, subcutaneous, 10 nmol/kg) does the source give for S1C(disialo(amide))-SRIF28 [Example 60] here?
Answer: 70-99%

Question: With E12C(disialo)-SRIF28 [Example 4] as the compound, how does the “GH production suppression effect” value ([2]; rats, subcutaneous, 10 nmol/kg) read?
Answer: 95-99%

Question: For S1C(monosialo)-SRIF28 [Example 26], which “GH production suppression effect” value ([2]; rats, subcutaneous, 10 nmol/kg) is on record?
Answer: 70-99%

Question: Which results are given for S1-2C(asialo)-SRIF28 [Example 28]?
Answer: affinity towards SSTR1-SSTR5, folds higher than S1C(disialo)-SRIF28 (SSTR1-SSTR5): 1.7-2.9 folds; GH production suppression effect ([2]; rats, subcutaneous, 10 nmol/kg): 70-99%; intestinal fluid weight compared to the vehicle [3]: increase in the intestinal fluid weight compared to the vehicle
